System: L-FICD generation
Assay: Screening of 53 protease inhibitors from a protease library for L-FICD generation
Type: cell-based
Text: To identify the protease(s) responsible for cleavage of H-FICD in an unbiased manner, we performed a screening of 53 protease inhibitors using a protease library. The best hits associated with the inhibition of L-FICD generation were MDL28170 and PD150606—two calpain inhibitors—along with MMP inhibitors and γ-secretase inhibitors. Calpain is the family of calcium-dependent cytosolic cysteine proteases expressed ubiquitously in mammals and many other organisms (Pfaff, M., Du, X. & Ginsberg, M. H. Calpain cleavage of integrin beta cytoplasmic domains. FEBS Lett 460, 17-22 (1999)), and calpain-dependent cleavages contribute to modulating various cellular functions such as apoptosis, proliferation and migration (Deshpande, R. V. et al. Calpain expression in lymphoid cells. Increased mRNA and protein levels after cell activation. J Biol Chem 270, 2497-2505 (1995). Svensson, L. et al. Calpain 2 controls turnover of LFA-1 adhesions on migrating T lymphocytes. PloS one 5, e15090, doi:10.1371/journal.pone.0015090 (2010).). […] Since calpain is activated by calcium, we examined if calcium signaling could compensate for M-CSF signaling to generate FICDs. In the absence of c-FMS signaling, calcium signaling was able to promote the cleavage of […] in the nucleus, and […] reversed the effect of calcium signaling on L-FICD processing (FIG.10C). […]

Substance: MDL28170
- inhibition of L-FICD generation (hit in screening): best hits

Source: patent US20220370463A1, “STABILIZED C-FMS INTRACELLULAR FRAGMENTS (FICD) PROMOTE OSTEOCLAST DIFFERENTIATION AND ARTHRITIC BONE EROSION” (New York Society for the Relief of the Ruptured and …, priority 2019, published 2022)
